Source: ChEMBL document CHEMBL1201862, “PubChem BioAssay data set” (2004)
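96-well plates; 48 h exposure; 5 concentrations. Endpoints by linear interpolation between flanking doses. Not reached: highest tested concentration assigned. Here, GI50 denotes the concentration required for 50% inhibition of growth.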 The source made the active and inactive calls. Rule as the data show it: active = GI50 up to about 1.1 µM and inactive = higher.

Columns and labels:
Experiment in all cases: growth of human tumour cells (NCI), 48 h
[1] = system: Hs-578T
[2] = system: U-251
[3] = system: SNB-19
[4] = system: UO-31
[5] = system: NCI-H226
[6] = system: NCI-H23
[7] = system: CAKI-1
[8] = system: NCI/ADR-RES
[9] = system: SK-MEL-28
[10] = system: OVCAR-3
[11] = system: T47D
[12] = system: SF-539
[13] = system: KM12
[14] = system: 786-0
[15] = system: HCT-116
[16] = system: RPMI-8226
[17] = system: HOP-92
[18] = system: HL-60
[19] = system: RXF 393

SMILES: C[n+]1c2ccccc2c(C(=O)Nc2ccc(S(=O)(=O)N=C(N)N)cc2)c2ccccc21
- GI50 [1]: > 100 µM (inactive)
- GI50 [2]: > 100 µM (inactive)
- GI50 [3]: > 100 µM (inactive)
- GI50 [4]: > 100 µM (inactive)
- GI50 [5]: > 100 µM (inactive)
- GI50 [6]: > 100 µM (inactive)
- GI50 [7]: > 100 µM (inactive)
- GI50 [8]: > 100 µM (inactive)
- GI50 [9]: > 100 µM (inactive)
- GI50 [10]: > 100 µM (inactive)
- GI50 [11]: > 100 µM (inactive)
- GI50 [12]: > 100 µM (inactive)
- GI50 [13]: > 100 µM (inactive)
- GI50 [14]: > 100 µM (inactive)
- GI50 [15]: > 100 µM (inactive)
- GI50 [16]: > 100 µM (inactive)

SMILES: O=c1c2ccccc2sc2nc(O)nn12
- GI50 [2]: > 100 µM (inactive)
- GI50 [3]: > 100 µM (inactive)
- GI50 [4]: > 100 µM (inactive)
- GI50 [5]: > 100 µM (inactive)
- GI50 [6]: > 100 µM (inactive)
- GI50 [7]: > 100 µM (inactive)
- GI50 [9]: > 100 µM (inactive)
- GI50 [17]: > 100 µM (inactive)
- GI50 [10]: > 100 µM (inactive)
- GI50 [12]: > 100 µM (inactive)
- GI50 [13]: > 100 µM (inactive)
- GI50 [14]: > 100 µM (inactive)
- GI50 [15]: > 100 µM (inactive)
- GI50 [18]: > 100 µM (inactive)
- GI50 [19]: > 100 µM (inactive)
- GI50 [16]: > 100 µM (inactive)

SMILES: Nc1ccc(Oc2ccc(C3(c4ccc(Oc5ccc(N)cc5)cc4)C4CC5C6CC7CC5C3C(C7)C6C4)cc2)cc1
- GI50 [1]: 62.5 µM (inactive)
- GI50 [2]: 1.03 µM (active)
- GI50 [3]: 37.4 µM (inactive)
- GI50 [4]: 5.24 µM (inactive)
- GI50 [5]: > 55.8 µM (inactive)
- GI50 [6]: 26.3 µM (inactive)
- GI50 [7]: 39 µM (inactive)
- GI50 [8]: > 100 µM (inactive)
- GI50 [9]: > 100 µM (inactive)
- GI50 [17]: 0.668 µM (active)
- GI50 [10]: 2.01 µM (inactive)
- GI50 [12]: 42.5 µM (inactive)
- GI50 [13]: 10.5 µM (inactive)
- GI50 [14]: 9.66 µM (inactive)
- GI50 [15]: 18.3 µM (inactive)
- GI50 [18]: 14 µM (inactive)
- GI50 [19]: 5.4 µM (inactive)
- GI50 [16]: 14.8 µM (inactive)

SMILES: CC(NC(=O)NC(C)(C)C)NC(=O)C(N)CC(=O)O (stereo not given)
- GI50 [1]: > 100 µM (inactive)
- GI50 [2]: > 100 µM (inactive)
- GI50 [3]: > 100 µM (inactive)
- GI50 [4]: > 100 µM (inactive)
- GI50 [5]: > 100 µM (inactive)
- GI50 [6]: > 100 µM (inactive)
- GI50 [7]: > 100 µM (inactive)
- GI50 [8]: > 100 µM (inactive)
- GI50 [9]: > 100 µM (inactive)
- GI50 [17]: > 100 µM (inactive)
- GI50 [10]: > 100 µM (inactive)
- GI50 [11]: > 100 µM (inactive)
- GI50 [12]: > 100 µM (inactive)
- GI50 [13]: > 100 µM (inactive)
- GI50 [14]: > 100 µM (inactive)
- GI50 [15]: > 100 µM (inactive)
- GI50 [19]: > 100 µM (inactive)
- GI50 [16]: > 100 µM (inactive)

SMILES: O=C(Nc1nc(C23CC4CC(CC(C4)C2)C3)cs1)c1cc2ccc(O)cc2oc1=O
- GI50 [1]: 14.5 µM (inactive)
- GI50 [2]: 12.8 µM (inactive)
- GI50 [3]: 18.4 µM (inactive)
- GI50 [4]: 7.36 µM (inactive)
- GI50 [5]: 18 µM (inactive)
- GI50 [6]: 11.7 µM (inactive)
- GI50 [7]: 19.6 µM (inactive)
- GI50 [8]: 11.1 µM (inactive)
- GI50 [9]: 15.1 µM (inactive)
- GI50 [17]: 3.7 µM (inactive)
- GI50 [10]: 13.8 µM (inactive)
- GI50 [12]: 17.1 µM (inactive)
- GI50 [13]: 6.05 µM (inactive)
- GI50 [14]: 11.6 µM (inactive)
- GI50 [15]: 10.1 µM (inactive)
- GI50 [18]: 10.3 µM (inactive)
- GI50 [19]: 16.4 µM (inactive)
- GI50 [16]: 5.35 µM (inactive)

SMILES: CCCCCCCCCCCCCCCCC1=CC(=O)C=C(OC)C1=O
- GI50 [1]: 37.6 µM (inactive)
- GI50 [2]: 32.5 µM (inactive)
- GI50 [3]: 56.4 µM (inactive)
- GI50 [4]: > 100 µM (inactive)
- GI50 [5]: > 100 µM (inactive)
- GI50 [6]: 62.2 µM (inactive)
- GI50 [7]: > 100 µM (inactive)
- GI50 [8]: 95.5 µM (inactive)
- GI50 [9]: > 100 µM (inactive)
- GI50 [17]: 56.8 µM (inactive)
- GI50 [10]: > 100 µM (inactive)
- GI50 [12]: 47.3 µM (inactive)
- GI50 [13]: 69.2 µM (inactive)
- GI50 [14]: 47.2 µM (inactive)
- GI50 [15]: 56 µM (inactive)
- GI50 [18]: > 100 µM (inactive)
- GI50 [19]: 37 µM (inactive)
- GI50 [16]: 91.2 µM (inactive)

SMILES: CCOC(=O)C1(C(=O)OCC)COS(=O)OC1
- GI50 [1]: 83.6 µM (inactive)
- GI50 [2]: > 100 µM (inactive)
- GI50 [3]: > 100 µM (inactive)
- GI50 [4]: 70.3 µM (inactive)
- GI50 [5]: 20.8 µM (inactive)
- GI50 [6]: 49.7 µM (inactive)
- GI50 [8]: 40 µM (inactive)
- GI50 [9]: 35.1 µM (inactive)
- GI50 [17]: 12.6 µM (inactive)
- GI50 [10]: 19.9 µM (inactive)
- GI50 [11]: 19.9 µM (inactive)
- GI50 [13]: 28.7 µM (inactive)
- GI50 [15]: 17.4 µM (inactive)
- GI50 [19]: 18.3 µM (inactive)

SMILES: O=c1[nH]c2ccccc2c(=O)n1/N=C\c1ccccc1O
- GI50 [1]: 32.3 µM (inactive)
- GI50 [2]: > 100 µM (inactive)
- GI50 [3]: > 100 µM (inactive)
- GI50 [4]: > 100 µM (inactive)
- GI50 [5]: > 100 µM (inactive)
- GI50 [6]: > 100 µM (inactive)
- GI50 [7]: > 100 µM (inactive)
- GI50 [9]: > 100 µM (inactive)
- GI50 [17]: 67 µM (inactive)
- GI50 [10]: > 100 µM (inactive)
- GI50 [11]: > 100 µM (inactive)
- GI50 [12]: > 100 µM (inactive)
- GI50 [13]: 30.5 µM (inactive)
- GI50 [14]: > 100 µM (inactive)
- GI50 [15]: > 100 µM (inactive)
- GI50 [18]: 36.1 µM (inactive)
- GI50 [16]: > 100 µM (inactive)
